# Results: patent US12065430B2, “Indazole compound or salt thereof” (TAIHO PHARMACEUTICAL CO., LTD., priority 2018, dated 2024)
# What was measured:
# [1] = test system: cancer cells with KRAS G12C mutation; conditions: reported in PTL 1 and NPL 2; cited from earlier work
# [2] = target: G12C mutant of inactive KRAS (GDP) (Homo sapiens (Human), UniProt P01116, G12C); conditions: reported in PTL 1 and NPL 2; cited from earlier work
# [3] = test system: tumor-bearing mice expressing KRAS G12C mutation; conditions: reported in PTL 2 and NPL 3; cited from earlier work
# NCI-H358 cells = assay: Growth inhibition activity on KRAS-G12C mutant cell line (NCI-H358) (in vitro, CellTiter-Glo2.0); type: cell-based; conditions: Homo sapiens, NCI-H358, 72 h, 3-day culture in the presence of the compound
# Method: NCI-H358 cells (ATCC, Cat #: CRL-5807), which are a KRAS-G12C mutant human lung cancer cell line, were suspended in a 10% fetal bovine serum-containing RPMI1640 medium (manufactured by Fujifilm Wako Pure Chemical Corporation.). The cell suspension was seeded into each well of a 384-well flat-bottom microplate and cultured in an incubator containing 5% CO2 gas at 37° C. for 1 day. The test compound was dissolved in DMSO, and diluted with DMSO to give a concentration 500 times the final concentration. The solution of the test compound in DMSO was diluted with the medium used for suspending cells and added to each well of the cell-culture plate to give a DMSO final concentration of 0.2%, followed by culture in an incubator containing 5% CO2 gas at 37° C. for another 3 days. The cell count after 3-day culture in the presence of the compound was measured using CellTiter-Glo2.0 (manufactured by Promega Corporation) in accordance with the protocol recommended by Promega Corporation. The growth inhibition rate was calculated from the following equation, and the concentration of the test compound at which 50% inhibition was achieved (IC50 (nM)) was determined. […] Growth Inhibition Rate (%)=(C−T)/(C)×100 • T: the emission intensity in a well into which a test compound was added. • C: the emission intensity in a well into which a test compound was not added.
# G12C K-Ras4B (1-169) = G12C K-Ras4B (1-169) (Homo sapiens (Human), UniProt P01116, G12C); assay: Test of compounds on whether to bind to KRASG12C (LC-MS compound binding rate); conditions: final compound concentration of 2 μM, 1 μM protein, 25° C. for 2 hours
# Procedure, shortened: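 K-Ras4B (1-169) WT and G12C (1 μM each, mixed) in 1×TBS, 0.1 mM TCEP incubated with compound (final 2 μM) 2 h at 25° C; quenched with 0.2% formic acid. Intact-protein LC-MS (ESI+, deconvoluted); binding rate = adduct signal/(adduct + unbound signal), giving selectivity over WT.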
# KRAS G12C = KRAS G12C (Homo sapiens (Human), UniProt P01116, G12C); assay: Inhibitory activity on KRAS G12C nucleotide (GDP-GTP) exchange reaction (Bodipy FL GDP, SOS1, GppNHp); type: biochemical; conditions: preincubation at 25° C. for 4 hours; SOS1 100 nM, GppNHp 1 μM, reaction 30 minutes
# Method: The inhibitory activity of compounds on exchange reaction of GDP into GppNHp in Bodipy (trademark) FL-bound KRAS G12C was examined by fluorescence measurement using human recombinant KRAS G12C and SOS1 proteins.
# For the preparation of KRAS G12C to which Bodipy FL GDP was bound, first, 50 μM^y KRAS G12C (amino acid region: 1-169) and 1 mM Bodipy FL GDP (Invitrogen, G22360) were incubated for 1 hour in a buffer (20 mM Tris-HCl (pH 7.5), 50 mM NaCl, 1 mM DTT) in ice in the presence of 2.5 mM EDTA. Thereafter, MgCl2 with a final concentration of 10 mM was added, and the mixture was incubated at room temperature for 30 minutes. The protein was allowed to pass through a NAP-5 column to remove free nucleotides and was used for compound evaluation.
# For the measurement of the inhibitory activity of compounds on nucleotide exchange reaction, first, the compound of the present invention was diluted stepwise with dimethyl sulfoxide (DMSO). […] The change in fluorescence intensity of Bodipy FL (excitation wavelength: 485 nm, fluorescence wavelength: 520 nm) immediately after the start of reaction and after 30 minutes from the start of reaction was standardized. […]
# G12C mutant of inactive KRAS (GDP), sequence (P01116-2 other isoform, or with tags, fused parts or gaps G12C): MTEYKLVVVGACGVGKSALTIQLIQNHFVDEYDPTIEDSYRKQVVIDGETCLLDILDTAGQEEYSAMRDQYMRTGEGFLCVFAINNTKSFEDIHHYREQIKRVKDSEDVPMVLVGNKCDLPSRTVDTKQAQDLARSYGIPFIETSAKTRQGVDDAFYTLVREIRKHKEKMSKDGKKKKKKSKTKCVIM
Structure (SMILES),IC50 (NCI-H358 cells),binding rate for G12C K-Ras4B (1-169) (G12C K-Ras4B (1-169)),other results
C=CC(=O)N1CC(N2CCN(C(=O)CNc3cc(C4(C)CC4)c(Cl)cc3O)CC2)C1 [ARS-853],–,–,induction of apoptosis [1]: inducing apoptosis in cancer cells with KRAS G12C mutation; binding to the cysteine of the G12C mutant of inactive KRAS (GDP) [2]: binds to the cysteine of the G12C mutant of inactive KRAS (GDP)
C=CC(=O)N1CCN(c2ncnc3c(F)c(-c4c(O)cccc4F)c(Cl)cc23)CC1 [ARS-1620],–,–,antitumor action [3]: exerts antitumor action in tumor-bearing mice expressing KRAS G12C mutation
"C=CC(=O)N1CC(NC(=O)c2c(Cl)nc(CNc3n[nH]c4cc(Cl)c(C(C)(C)C)cc34)n2C2CN(C(=O)OC(C)(C)C)C2)C1 [Example 106, Tert-butyl 3-(5-((1-acryloylazetidin-3-yl)carbamoyl)-2-(((5-(tert-butyl)-6-chloro-1H-indazol-3-yl)amino)methyl)-4-chloro-1H-imidazol-1-yl)azetidine-1-carboxylate]",42 nM,"A (a binding rate of 80% or more is rated “A,”)",–
"C=CC(=O)N1CC(NC(=O)c2c(Cl)nc(CNc3n[nH]c4cc(Cl)c(C(C)(C)C)cc34)n2[C@H]2CC[C@@H](OC)CC2)C1 [Example 112, N-(1-acryloylazetidin-3-yl)-2-(((5-(tert-butyl)-6-chloro-1H-indazol-3-yl)amino)methyl)-4-chloro-1-(4-methoxycyclohexyl)-1H-imidazole-5-carboxamide]",52 nM,"A (a binding rate of 80% or more is rated “A,”)",IC50 (KRAS G12C): 5 nM
"C=CC(=O)N1CC(NC(=O)c2c(Cl)nc(CNc3n[nH]c4cc(Cl)c(C(C)(C)C)cc34)n2[C@@H]2CCN(c3ccccn3)C2)C1 [Example 124, (R)—N-(1-acryloylazetidin-3-yl)-2-(((5-(tert-butyl)-6-chloro-1H-indazol-3-yl)amino)methyl)-4-chloro-1-(1-(pyridin-2-yl)pyrrolidin-3-yl)-1H-imidazole-5-carboxamide]",19 nM,"A (a binding rate of 80% or more is rated “A,”)",–
"C=CC(=O)N1CC(NC(=O)c2c(Cl)nc(CNc3n[nH]c4cc(Cl)c(C(C)(C)C)cc34)n2[C@@H]2C[C@@H](C)N(CC(F)F)C2)C1 [Example 126, N-(1-acryloylazetidin-3-yl)-2-(((5-(tert-butyl)-6-chloro-1H-indazol-3-yl)amino)methyl)-4-chloro-1-((3R,5R)-1-(2,2-difluoroethyl)-5-methylpyrrolidin-3-yl)-1H-imidazole-5-carboxamide]",35 nM,"A (a binding rate of 80% or more is rated “A,”)",–

# More lines, main results first:
IC50 (NCI-H358 cells),Structure (SMILES),binding rate for G12C K-Ras4B (1-169) (G12C K-Ras4B (1-169)),other results
69 nM,"C=CC(=O)N1CC(NC(=O)c2c(Cl)nc(CNc3n[nH]c4cc(Cl)c(C(C)(C)C)cc34)n2[C@@H]2CCOC2)C1 [Example 102, (R)—N-(1-acryloylazetidin-3-yl)-2-(((5-(tert-butyl)-6-chloro-1H-indazol-3-yl)amino)methyl)-4-chloro-1-(tetrahydrofuran-3-yl)-1H-imidazole-5-carboxamide]","A (a binding rate of 80% or more is rated “A,”)",–
29 nM,"C=CC(=O)N1CC(NC(=O)c2c(Cl)nc(CNc3n[nH]c4cc(Cl)c(C(C)(C)C)cc34)n2C2CCN(C)CC2)C1 [Example 103, N-(1-acryloylazetidin-3-yl)-2-(((5-(tert-butyl)-6-chloro-1H-indazol-3-yl)amino)methyl)-4-chloro-1-(1-methylpiperidin-4-yl)-1H-imidazole-5-carboxamide]","A (a binding rate of 80% or more is rated “A,”)",–
91 nM,"C=CC(=O)N1CC(NC(=O)c2c(Cl)nc(CNc3n[nH]c4cc(Cl)c(C(C)(C)C)cc34)n2C2CCCOC2)C1 (centres unmarked) [Example 104, N-(1-acryloylazetidin-3-yl)-2-(((5-(tert-butyl)-6-chloro-1H-indazol-3-yl)amino)methyl)-4-chloro-1-(tetrahydro-2H-pyran-3-yl)-1H-imidazole-5-carboxamide]","A (a binding rate of 80% or more is rated “A,”)",–
76 nM,"C=CC(=O)N1CC(NC(=O)c2c(Cl)nc(CNc3n[nH]c4cc(Cl)c(C(C)(C)C)cc34)n2C2CCCC2)C1 [Example 105, N-(1-acryloylazetidin-3-yl)-2-(((5-(tert-butyl)-6-chloro-1H-indazol-3-yl)amino)methyl)-4-chloro-1-cyclopentyl-1H-imidazole-5-carboxamide]","A (a binding rate of 80% or more is rated “A,”)",–
78 nM,"C=CC(=O)N1CC(NC(=O)c2c(Cl)nc(CNc3n[nH]c4cc(Cl)c(C(C)(C)C)cc34)n2C2CN(C(C)C)C2)C1 [Example 107, N-(1-acryloylazetidin-3-yl)-2-(((5-(tert-butyl)-6-chloro-1H-indazol-3-yl)amino)methyl)-4-chloro-1-(1-isopropylazetidin-3-yl)-1H-imidazole-5-carboxamide]","A (a binding rate of 80% or more is rated “A,”)",–
32 nM,"C=CC(=O)N1CC(NC(=O)c2c(Cl)nc(CNc3n[nH]c4cc(Cl)c(C(C)(C)C)cc34)n2[C@@H]2CCN(C(C)C)C2)C1 [Example 114, (R)—N-(1-acryloylazetidin-3-yl)-2-(((5-(tert-butyl)-6-chloro-1H-indazol-3-yl)amino)methyl)-4-chloro-1-(1-isopropylpyrrolidin-3-yl)-1H-imidazole-5-carboxamide]","A (a binding rate of 80% or more is rated “A,”)",–
21 nM,"C=CCN1CC[C@@H](n2c(CNc3n[nH]c4cc(Cl)c(C(C)(C)C)cc34)nc(Cl)c2C(=O)NC2CN(C(=O)C=C)C2)C1 [Example 123, (R)—N-(1-acryloylazetidin-3-yl)-1-(1-allylpyrrolidin-3-yl)-2-(((5-(tert-butyl)-6-chloro-1H-indazol-3-yl)amino)methyl)-4-chloro-1H-imidazole-5-carboxamide]","A (a binding rate of 80% or more is rated “A,”)",–
